Test results published in patent publication US4346076A, “Bis-tetrazoylmethyl substituted cephalosporin antibiotics” (Eli Lilly and Company, priority 1980, dated 1982).
≈ marks a conversion by molar mass, not a printed value. Like-named read-outs stand apart in the source and are kept apart here.

Assays:
Test in all cases: in vitro antibacterial activity, agar dilution
Assay type in all cases: cell-based
[1] = test system: Klebsiella sp.
Source text: (§1) The bis-tetrazol-thiomethyl substituted cephalosporins of this invention are broad spectrum antibiotics which inhibit the growth of both gram positive and gram negative microorganisms which are pathogenic to man and animals. […] The following Table 2 lists the minimum inhibitory concentrations of representative compounds of the invention.
(§2) The data in TABLE 2 were obtained in the agar dilution test method using Mueller-Hinton agar containing two percent Supplement C (Difco). Serial two-fold dilutions were run with the highest concentration on test at 128 mcg/ml.

[2] = test system: Staphylococcus aureus
Source text: as §1, §2

[3] = test system: Proteus morganii; conditions: Morganella morganii, read-out: Minimum Inhibitory Concentration
Source text: as §1, §2

[4] = test system: Proteus inconstans; conditions: Providencia alcalifaciens; strain PR33; read-out: Minimum Inhibitory Concentration
Source text: as §1, §2

[5] = test system: Serratia marcescens
Source text: as §1, §2

[6] = test system: Bordetella bronchoseptica; conditions: strain 16, read-out: Minimum Inhibitory Concentration
Source text: as §1, §2

[7] = test system: Shigella sonnei; conditions: strain N9, read-out: Minimum Inhibitory Concentration
Source text: as §1, §2

[8] = test system: Streptococcus pneumoniae; conditions: strain PARK, read-out: Minimum Inhibitory Concentration
Source text: as §1, §2

[9] = test system: Salmonella sp.
Source text: as §1, §2

[10] = test system: Staphylococcus epidermidis
Source text: as §1, §2

[11] = test system: Haemophilus influenzae; conditions: for MIC: Haemophilus influenzae, read-out: Minimum Inhibitory Concentration
Source text: as §1, §2

[12] = test system: Enterobacter aerogenes; conditions: for MIC: Klebsiella aerogenes, read-out: Minimum Inhibitory Concentration
Source text: as §1, §2

[13] = test system: Enterobacter cloacae
Source text: as §1, §2

[14] = test system: Streptococcus Group A; conditions: strain C203; read-out: Minimum Inhibitory Concentration
Source text: as §1, §2

[15] = test system: Streptococcus Group D; conditions: read-out: Minimum Inhibitory Concentration
Source text: as §1, §2

[16] = test system: Proteus rettgeri; conditions: Providencia rettgeri, read-out: Minimum Inhibitory Concentration
Source text: as §1, §2

[17] = test system: Pseudomonas aeruginosa
Source text: as §1, §2

[18] = test system: Citrobacter freundii; conditions: strain CF17, read-out: Minimum Inhibitory Concentration
Source text: as §1, §2

[19] = test system: Escherichia coli
Source text: as §1, §2

[20] = strain KAE, read-out: Minimum Inhibitory Concentration
[21] = strain X26, read-out: Minimum Inhibitory Concentration
[22] = read-out: Minimum Inhibitory Concentration
[23] = strain V41, read-out: Minimum Inhibitory Concentration
[24] = strain X1.1, read-out: Minimum Inhibitory Concentration
[25] = strain X400, read-out: Minimum Inhibitory Concentration
[26] = strain SE3, read-out: Minimum Inhibitory Concentration
[27] = strain 1335, read-out: Minimum Inhibitory Concentration
[28] = strain X514, read-out: Minimum Inhibitory Concentration
[29] = strain EPI1, read-out: Minimum Inhibitory Concentration
[30] = strain EPI2, read-out: Minimum Inhibitory Concentration
[31] = strain 265A, read-out: Minimum Inhibitory Concentration
[32] = strain EB5, read-out: Minimum Inhibitory Concentration
[33] = strain Ps18, read-out: Minimum Inhibitory Concentration
[34] = strain X239, read-out: Minimum Inhibitory Concentration
[35] = strain X528, read-out: Minimum Inhibitory Concentration
[36] = strain EC14, read-out: Minimum Inhibitory Concentration
[37] = strain N10, read-out: Minimum Inhibitory Concentration

| Structure (SMILES) | MIC [1, 20] [µg/mL] | MIC [1, 21] [µg/mL] | MIC [2, 22] [µg/mL] | MIC [2, 23] [µg/mL] | MIC [2, 24] [µg/mL] | MIC [2, 25] [µg/mL] | MIC [4] [µg/mL] | MIC [5, 26] [µg/mL] | MIC [6] [µg/mL] | MIC [7] [µg/mL] | MIC [8] [µg/mL] | MIC [9, 27] [µg/mL] | MIC [9, 28] [µg/mL] | MIC [10, 29] [µg/mL] | MIC [10, 30] [µg/mL] | MIC ([12]; strain EB17) [µg/mL] | MIC [13, 31] [µg/mL] | MIC [13, 32] [µg/mL] | MIC [14] [µg/mL] | MIC ([15]; strain 9960) [µg/mL] | further results |
| --- | --- | --- | --- | --- | --- | --- | --- | --- | --- | --- | --- | --- | --- | --- | --- | --- | --- | --- | --- | --- | --- |
| CO/N=C(\C(=O)N[C@@H]1C(=O)N2C(C(=O)O)=C(CSc3nnnn3Cc3nnnn3C)CS[C@H]12)c1csc(N)n1 [F] | 4 (≈ 6.74 µM) | 0.06 (≈ 0.101 µM) | 8 (≈ 13.5 µM) | 4 (≈ 6.74 µM) | 2 (≈ 3.37 µM) | > 128 | 0.5 (≈ 0.842 µM) | 0.5 (≈ 0.842 µM) | 128 (≈ 216 µM) | 0.125 (≈ 0.211 µM) | 0.015 (≈ 0.0253 µM) | 0.5 (≈ 0.842 µM) | 0.25 (≈ 0.421 µM) | 8 (≈ 13.5 µM) | 32 (≈ 53.9 µM) | 0.25 (≈ 0.421 µM) | 32 (≈ 53.9 µM) | 1 (≈ 1.68 µM) | 0.03 (≈ 0.0505 µM) | 16 (≈ 27 µM) | MIC [3]: 0.125 µg/mL (≈ 0.211 µM); MIC [5, 22]: 0.125 µg/mL (≈ 0.211 µM); MIC [11]: 0.125 µg/mL (≈ 0.211 µM); Minimum Inhibitory Concentration ([11]; strain 251, resistant strain): .125 µg/mL; MIC [12]: 0.125 µg/mL (≈ 0.211 µM); Minimum Inhibitory Concentration ([12]; strain C32): .125 µg/mL; MIC ([15]; strain X66): > 128 µg/mL; MIC ([16]; strain C24): 0.25 µg/mL (≈ 0.421 µM); MIC ([16]; strain PR7): 0.03 µg/mL (≈ 0.0505 µM); MIC [17, 33]: 32 µg/mL (≈ 53.9 µM); MIC [17, 34]: 32 µg/mL (≈ 53.9 µM); MIC [17, 35]: 32 µg/mL (≈ 53.9 µM); MIC [18]: 16 µg/mL (≈ 27 µM); MIC [19, 22]: 0.125 µg/mL (≈ 0.211 µM); MIC [19, 36]: 0.06 µg/mL (≈ 0.101 µM); MIC [19, 37]: 0.25 µg/mL (≈ 0.421 µM) |
| CO/N=C(\C(=O)N[C@@H]1C(=O)N2C(C(=O)O)=C(CSc3nnn(Cc4nnn[nH]4)n3)CS[C@H]12)c1csc(N)n1 [G, syn 7β-[α-methoximino-α-(2-amino-1,3-thiazol-4-yl)-acetamido]-3-[2-(1H-tetrazol-5-ylmethyl)-2H-tetrazol-5-ylthiomethyl]-3-cephem-4-carboxylic acid] | 8 (≈ 13.8 µM) | 0.125 (≈ 0.216 µM) | 32 (≈ 55.2 µM) | 8 (≈ 13.8 µM) | 4 (≈ 6.9 µM) | > 128 | 1 (≈ 1.73 µM) | 2 (≈ 3.45 µM) | 64 (≈ 110 µM) | 2 (≈ 3.45 µM) | 0.03 (≈ 0.0518 µM) | 0.5 (≈ 0.863 µM) | 0.125 (≈ 0.216 µM) | 32 (≈ 55.2 µM) | 64 (≈ 110 µM) | 0.25 (≈ 0.431 µM) | 64 (≈ 110 µM) | 2 (≈ 3.45 µM) | 0.03 (≈ 0.0518 µM) | > 128 | MIC ([3]; strain PR15): 0.5 µg/mL (≈ 0.863 µM); MIC ([5]; strain X93, read-out: Minimum Inhibitory Concentration): 0.25 µg/mL (≈ 0.431 µM); MIC ([11]; strain 251, resistant strain): 0.06 µg/mL (≈ 0.104 µM); MIC ([11]; strain Brun, sensitive strain): 0.06 µg/mL (≈ 0.104 µM); MIC ([12]; strain C32): 0.25 µg/mL (≈ 0.431 µM); MIC ([12]; strain X68): 0.06 µg/mL (≈ 0.104 µM); MIC ([15]; strain X66): > 128 µg/mL; MIC ([16]; strain C24): 2 µg/mL (≈ 3.45 µM); MIC ([16]; strain PR7): 0.03 µg/mL (≈ 0.0518 µM); MIC [17, 33]: 32 µg/mL (≈ 55.2 µM); MIC [17, 34]: 16 µg/mL (≈ 27.6 µM); MIC [17, 35]: 16 µg/mL (≈ 27.6 µM); MIC [18]: 64 µg/mL (≈ 110 µM); MIC [19, 36]: 0.125 µg/mL (≈ 0.216 µM); MIC [19, 37]: 0.25 µg/mL (≈ 0.431 µM); MIC ([19]; strain TEM, read-out: Minimum Inhibitory Concentration): 0.125 µg/mL (≈ 0.216 µM) |
